Test results from US4476122A, “Alkyloximes of 7-amino-thiazolyl-acetamido-cephalosporanic acids” (Roussel Uclaf, priority 1976, dated 1984).
Values after ≈ are worked out from the molar mass of the structure shown. Where two headings read alike, the source gives them in different places.

Assays:
[1] = test system: Klebsiella pneumoniae Exp. 52 145; assay: MIC, liquid medium dilution; type: cell-based
Protocol: (§1) The method used was a dilution of a liquid medium where a series of tubes received the same quantity of a sterile nutritive media and increasing doses of the test compounds were placed therein. Then each tube was seeded with a bacterial strain and was incubated for 24 or 48 hours at 37° C. in an oven. The increasing inhibition was determined by transillumination to determine the minimum inhibiting concentration (MIC in μg/ml) and the results are reported in the following Tables.

[2] = test system: Klebsiella pneumoniae 2 536 Resistant Gentamicine; assay: MIC, liquid medium dilution; type: cell-based
Protocol: as §1

[3] = test system: Staphylococcus aureus ATCC 6 538 Pen-Sensitive; assay: MIC, liquid medium dilution; type: cell-based
Protocol: as §1

[4] = test system: Staphylococcus aureus exp. n° 54 146; assay: MIC, liquid medium dilution; type: cell-based
Protocol: as §1

[5] = test system: Proteus mirabilis (indol-) A 235; assay: MIC, liquid medium dilution; type: cell-based
Protocol: as §1

[6] = test system: Escherichia Coli Resistant Tetracycline ATCC 11 303; assay: MIC, liquid medium dilution; type: cell-based
Protocol: as §1

[7] = test system: Staphylococcus aureus UC 1 128 Pen-Resistant; assay: MIC, liquid medium dilution; type: cell-based
Protocol: as §1

[8] = test system: Streptococcus faecalis 5 432; assay: MIC, liquid medium dilution; type: cell-based
Protocol: as §1

[9] = test system: Proteus vulgaris (indol+) A 232; assay: MIC, liquid medium dilution; type: cell-based
Protocol: as §1

[10] = test system: Escherichia Coli Sensitive Tetracycline ATCC 9 637; assay: MIC, liquid medium dilution; type: cell-based
Protocol: as §1

[11] = test system: Bacillus subtilis ATCC 6 633; assay: MIC, liquid medium dilution; type: cell-based
Protocol: as §1

[12] = test system: Streptococcus pyogenes A 561; assay: MIC, liquid medium dilution; type: cell-based
Protocol: as §1

[13] = test system: Streptococcus faecalis 99 F 74; assay: MIC, liquid medium dilution; type: cell-based; conditions: Enterococcus faecalis
Protocol: as §1

[14] = test system: Salmonella typhimurium 420; assay: MIC, liquid medium dilution; type: cell-based; conditions: Salmonella enterica
Protocol: as §1

[15] = test system: Escherichia Coli Resistant Gentamicine, Tobramycine R 55 123 D; assay: MIC, liquid medium dilution; type: cell-based
Protocol: as §1

[16] = test system: Escherichia Coli Exp. TO26 B6; assay: MIC, liquid medium dilution; type: cell-based
Protocol: as §1

[17] = test system: Serratia Resistant Gentamicine 2 532; assay: MIC, liquid medium dilution; type: cell-based
Protocol: as §1

Providencia Du 48 = assay: MIC, liquid medium dilution; type: cell-based
Protocol: as §1

Enterobacter cloacae 681 = assay: MIC, liquid medium dilution; type: cell-based
Protocol: as §1

[18] = test system: Klebsiella pneumonia 52,145; assay: Experimental infection with Klebsiella pneumonia in mice (D); type: in vivo
Protocol: The activity of the products of Examples 19 and 21 was studied on an experimental infection of Klebsiella pneumonia in mice. Groups of 10 male mice weighing 21.5 g received intraperitoneally 0.5 ml of a 24 hour culture in nutritive media of Klebsiella pneumonia 52,145 diluted by 1/1000 with distilled water. The products were administered subcutaneously 1,5 and 24 hours after the injection and the number of dead mice were determined using 10th days.

[19] = Enterococcus faecalis, 5432, 24 h
[20] = Enterococcus faecalis, 5432, 48 h

Question: For `CO/N=C(/C(=O)NC1C(=O)N2C(C(=O)O)=C(C)CS[C@H]12)c1csc(N)n1` (some centres unmarked) [Example 15, 7-[{2-(2-amino-4-thiazolyl)-2-methoxyiminoacetyl}amino]-3-methyl-ceph-3-eme-4-carboxylic acid], which MIC ([1]; EXP.52145, 24 h, read-out: MIC) is on record?
Answer: Its MIC is 100 µg/mL (≈ 252 µM).

Question: What about the MIC ([1]; EXP.52145, 48 h, read-out: MIC) of the same molecule?
Answer: The MIC was 100 µg/mL (≈ 252 µM).

Question: What about the MIC ([2]; 24 h) of the same molecule?
Answer: The MIC was over 100 µg/mL.

Question: And the MIC ([2]; 48 h)?
Answer: Its MIC is over 100 µg/mL.

Question: And the MIC ([3]; ATCC6, 24 h)?
Answer: Its MIC is over 100 µg/mL.

Question: What about the MIC ([3]; ATCC6, 48 h) of the same molecule?
Answer: Its MIC is over 100 µg/mL.

Question: What about the MIC ([4]; 24 h) of the same molecule?
Answer: The MIC was over 100 µg/mL.

Question: And the MIC ([4]; 48 h)?
Answer: Its MIC is over 100 µg/mL.

Question: What about the MIC ([5]; 24 h, read-out: MIC) of the same molecule?
Answer: Its MIC is 20 µg/mL (≈ 50.3 µM).

Question: What about the MIC ([5]; 48 h, read-out: MIC) of the same molecule?
Answer: The MIC was 40 µg/mL (≈ 101 µM).

Question: What about the MIC ([6]; ATCC11, 24 h) of the same molecule?
Answer: Its MIC is over 100 µg/mL.

Question: What about the MIC ([6]; ATCC11, 48 h) of the same molecule?
Answer: Its MIC is over 100 µg/mL.

Question: What about the MIC ([7]; UC1, 24 h) of the same molecule?
Answer: Its MIC is over 100 µg/mL.

Question: What about the MIC ([7]; UC1, 48 h) of the same molecule?
Answer: Its MIC is over 100 µg/mL.

Question: And the MIC [8, 19]?
Answer: The MIC was over 100 µg/mL.

Question: And the MIC [8, 20]?
Answer: Its MIC is over 100 µg/mL.

Question: And the MIC ([9]; 24 h)?
Answer: Its MIC is over 100 µg/mL.

Question: And the MIC ([9]; 48 h)?
Answer: The MIC was over 100 µg/mL.

Question: And the MIC ([10]; ATCC9, 24 h)?
Answer: The MIC was over 100 µg/mL.

Question: And the MIC ([10]; ATCC9, 48 h)?
Answer: The MIC was over 100 µg/mL.

Question: What about the MIC ([11]; ATCC6, 24 h) of the same molecule?
Answer: Its MIC is over 100 µg/mL.

Question: And the MIC ([11]; ATCC6, 48 h)?
Answer: Its MIC is over 100 µg/mL.

Question: And the MIC ([12]; A561, 24 h)?
Answer: The MIC was 2 µg/mL (≈ 5.03 µM).

Question: And the MIC ([12]; A561, 48 h)?
Answer: The MIC was 3 µg/mL (≈ 7.55 µM).

Question: And the MIC ([13]; 99F74, 24 h)?
Answer: The MIC was over 100 µg/mL.

Question: What about the MIC ([13]; 99F74, 48 h) of the same molecule?
Answer: Its MIC is over 100 µg/mL.

Question: What about the MIC ([14]; 24 h) of the same molecule?
Answer: Its MIC is over 100 µg/mL.

Question: And the MIC ([14]; 48 h)?
Answer: The MIC was over 100 µg/mL.

Question: And the MIC ([15]; 24 h)?
Answer: Its MIC is over 100 µg/mL.

Question: What about the MIC ([15]; 48 h) of the same molecule?
Answer: The MIC was over 100 µg/mL.

Question: And the MIC ([16]; 24 h)?
Answer: Its MIC is over 100 µg/mL.

Question: What about the MIC ([16]; 48 h) of the same molecule?
Answer: The MIC was over 100 µg/mL.

Question: And the MIC ([17]; 24 h)?
Answer: The MIC was over 100 µg/mL.

Question: And the MIC ([17]; 48 h)?
Answer: Its MIC is over 100 µg/mL.

Question: What about the MIC (Providencia Du 48; DU48, 24 h) of the same molecule?
Answer: Its MIC is over 100 µg/mL.

Question: What about the MIC (Providencia Du 48; DU48, 48 h) of the same molecule?
Answer: Its MIC is over 100 µg/mL.

Question: Which results are given for `CO/N=C(/C(=O)NC1C(=O)N2C(C(=O)O)=C(CSC(C)=O)CSC12)c1csc(N)n1` (centres unmarked) [Example 17, 3-acetylthiomethyl-7-[{2-(2-amino-4-thiazolyl)-2-methoxyiminoacetyl}amino]-ceph-3-eme-4-carboxylic acid]?
Answer: MIC ([1]; EXP.52145, 24 h): 40 µg/mL (≈ 84.8 µM); MIC ([1]; EXP.52145, 48 h): 40 µg/mL (≈ 84.8 µM); MIC ([2]; 24 h): > 100 µg/mL; MIC ([2]; 48 h): > 100 µg/mL; MIC ([3]; ATCC6, 24 h): 20 µg/mL (≈ 42.4 µM); MIC ([3]; ATCC6, 48 h): 20 µg/mL (≈ 42.4 µM); MIC ([4]; 24 h): 40 µg/mL (≈ 84.8 µM); MIC ([4]; 48 h): 40 µg/mL (≈ 84.8 µM); MIC ([5]; 24 h): 5 µg/mL (≈ 10.6 µM); MIC ([5]; 48 h): 40 µg/mL (≈ 84.8 µM); MIC ([6]; ATCC11, 24 h): 5 µg/mL (≈ 10.6 µM); MIC ([6]; ATCC11, 48 h): 5 µg/mL (≈ 10.6 µM); MIC ([7]; UC1, 24 h): 40 µg/mL (≈ 84.8 µM); MIC ([7]; UC1, 48 h): 100 µg/mL (≈ 212 µM); MIC (Enterobacter cloacae 681; Enterobacter cloacae, 681, 24 h): 40 µg/mL (≈ 84.8 µM); MIC (Enterobacter cloacae 681; Enterobacter cloacae, 681, 48 h): 100 µg/mL (≈ 212 µM); MIC [8, 19]: > 100 µg/mL; MIC [8, 20]: > 100 µg/mL; MIC ([9]; 24 h): > 100 µg/mL; MIC ([9]; 48 h): > 100 µg/mL; MIC ([10]; ATCC9, 24 h): 40 µg/mL (≈ 84.8 µM); MIC ([10]; ATCC9, 48 h): 40 µg/mL (≈ 84.8 µM); MIC ([11]; ATCC6, 24 h): 5 µg/mL (≈ 10.6 µM); MIC ([11]; ATCC6, 48 h): 20 µg/mL (≈ 42.4 µM); MIC ([12]; A561, 24 h): 0.2 µg/mL (≈ 0.424 µM); MIC ([12]; A561, 48 h): 0.2 µg/mL (≈ 0.424 µM); MIC ([13]; 99F74, 24 h): > 100 µg/mL; MIC ([13]; 99F74, 48 h): > 100 µg/mL; MIC ([14]; 24 h): 40 µg/mL (≈ 84.8 µM); MIC ([14]; 48 h): 40 µg/mL (≈ 84.8 µM); MIC ([15]; 24 h): 40 µg/mL (≈ 84.8 µM); MIC ([15]; 48 h): 40 µg/mL (≈ 84.8 µM); MIC ([16]; 24 h): 20 µg/mL (≈ 42.4 µM); MIC ([16]; 48 h): 40 µg/mL (≈ 84.8 µM); MIC ([17]; 24 h): > 100 µg/mL; MIC ([17]; 48 h): > 100 µg/mL; MIC (Providencia Du 48; DU48, 24 h): > 100 µg/mL; MIC (Providencia Du 48; DU48, 48 h): > 100 µg/mL

Question: What does the source list for `CO/N=C(\C(=O)NC1C(=O)N2C(C(=O)O)=C(CSc3nnc(C)s3)CS[C@H]12)c1csc(N)n1` (some centres unmarked) [Example 19, sodium 7-[{2-(2-amino-4-thiazolyl)-2-methoxyiminoacetyl}amino]-3-[(2-methyl-1,3,4-thiadiazol-5-yl)-thiomethyl]-ceph-3-eme-4-carboxylate]?
Answer: Mice alive on the 10th day ([18]; subcutaneous, 0,1 mg): 9/10; Mortality after 6eJ (number of dead of 10) ([18]; subcutaneous, 0,1 mg): 1; Mice alive on the 10th day ([18]; subcutaneous, 0,05 mg): 6/10; Mortality after 4eJ (number of dead of 10) ([18]; subcutaneous, 0,05 mg): 1; Mortality after 5eJ (number of dead of 10) ([18]; subcutaneous, 0,05 mg): 2; Mortality after 7eJ (number of dead of 10) ([18]; subcutaneous, 0,05 mg): 1; Mice alive on the 10th day ([18]; subcutaneous, 0,5 mg): 10/10; Mice alive on the 10th day ([18]; subcutaneous, 0,25 mg): 10/10; Mice alive on the 10th day ([18]; subcutaneous, 1 mg): 10/10
